Results taken from patent US10059689B2, “Substituted heteroaryl compounds and methods of use” (Sunshine Lake Pharma Co., Ltd., priority 2014, dated 2018).

What was measured:
[1] = target: T1, FLT3 (h) (Homo sapiens, UniProt P36888); assay: FLT3 (h) kinase assay; format: biochemical
T1 construct: purchased Millipore UK Ltd (contract assay service)
T1 sequence (P36888 27-993): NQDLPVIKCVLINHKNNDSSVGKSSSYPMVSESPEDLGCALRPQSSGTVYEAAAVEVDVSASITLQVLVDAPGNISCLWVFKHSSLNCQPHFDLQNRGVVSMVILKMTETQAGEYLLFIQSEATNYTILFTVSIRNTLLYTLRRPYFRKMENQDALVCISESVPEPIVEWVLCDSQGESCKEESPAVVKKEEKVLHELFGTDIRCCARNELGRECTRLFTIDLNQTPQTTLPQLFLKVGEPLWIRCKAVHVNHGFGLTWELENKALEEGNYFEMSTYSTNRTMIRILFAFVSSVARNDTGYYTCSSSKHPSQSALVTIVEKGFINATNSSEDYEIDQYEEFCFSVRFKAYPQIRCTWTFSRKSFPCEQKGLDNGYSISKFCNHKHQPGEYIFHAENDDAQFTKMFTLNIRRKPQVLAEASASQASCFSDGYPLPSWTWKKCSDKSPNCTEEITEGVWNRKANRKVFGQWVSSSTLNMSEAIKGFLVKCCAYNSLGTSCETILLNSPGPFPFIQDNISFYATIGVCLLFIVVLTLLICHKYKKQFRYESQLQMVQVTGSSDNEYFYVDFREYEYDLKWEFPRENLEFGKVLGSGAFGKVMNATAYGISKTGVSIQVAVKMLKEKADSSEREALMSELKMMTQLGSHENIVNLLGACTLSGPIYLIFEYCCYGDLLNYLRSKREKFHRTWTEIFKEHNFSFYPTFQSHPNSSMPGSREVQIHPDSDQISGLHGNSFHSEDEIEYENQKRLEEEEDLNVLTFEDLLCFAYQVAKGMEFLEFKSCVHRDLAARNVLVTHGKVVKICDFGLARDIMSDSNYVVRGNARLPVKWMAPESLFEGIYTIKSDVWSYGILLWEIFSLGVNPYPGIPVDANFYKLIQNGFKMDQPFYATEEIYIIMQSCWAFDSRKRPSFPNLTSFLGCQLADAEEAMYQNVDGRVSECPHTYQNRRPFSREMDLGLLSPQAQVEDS
Protocol: Kinase assays can be performed by measurement of incorporation of γ-33P ATP into immobilized myelin basic protein (MBP). High binding white 384 well plates (Greiner) are coated with MBP (Sigma #M-1891) by incubation of 60 μL/well of 20 μg/mL MBP in Tris-buffered saline (TBS; 50 mM Tris pH 8.0, 138 mM NaCl, 2.7 mM KCl) for 24 h at 4° C. Plates are washed 3× with 100 μL TBS. Kinase reactions are carried out in a total volume of 34 μL in kinase buffer (according to the need to make, for example, 5 mM Hepes pH 7.6, 15 mM NaCl, 0.01% bovine gamma globulin (Sigma #I-5506), 10 mM MgCl2, 1 mM DTT, 0.02% TritonX-100). Compound dilutions are performed in DMSO and added to assay wells to a final DMSO concentration of 1%. Each data point is measured in duplicate, and at least two duplicate assays are performed for each individual compound determination. Enzyme is added to final concentrations of 10 nM or 20 nM, for example. A mixture of unlabeled ATP and γ-33P ATP is added to start the reaction (2×10^6 cpm of γ-33P ATP per well (3000 Ci/mmole) and 10 μM unlabeled ATP, typically. The reactions are carried out for 1 h at room temperature with shaking Plates are washed 7× with TBS, followed by the addition of 50 μL/well scintillation fluid (Wallac). Plates are read using a Wallac Trilux counter. This is only one format of such assays; various other formats are possible, as known to one skilled in the art.
(§1) The above assay procedure can be used to determine the IC50 for inhibition and/or the inhibition constant, Ki. The IC50 is defined as the concentration of compound required to reduce the enzyme activity by 50% under the condition of the assay. The IC50 value is estimated by preparing a 10 point curve using a ½ log dilution series (for example, a typical curve may be prepared using the following compound concentrations: 3 μM, 1 μM, 0.3 μM, 0.1 μM, 0.03 μM, 0.01 μM, 0.003 μM, 0.001 μM, 0.0003 μM and 0 μM).
(§2) FLT3 (h) is incubated with 8 mM MOPS pH 7.0, 0.2 mM EDTA, 50 μM EAIYAAPFAKKK, 10 mM MgAcetate and [γ-^33P-ATP] (specific activity approx. 500 cpm/pmol, concentration as required). The reaction is initiated by the addition of the MgATP mix. After incubation for 40 minutes at room temperature, the reaction is stopped by the addition of 3% phosphoric acid solution. 10 μL of the reaction is then spotted onto a P30 filtermat and washed three times for 5 minutes in 75 mM phosphoric acid and once in methanol prior to drying and scintillation counting.
(§3) The kinase assays described herein were performed at Millipore UK Ltd, Dundee Technology Park, Dundee DD2 1SW, UK.

[2] = target: T2, JAK1 (h) (Homo sapiens, UniProt P23458); assay: JAK1 (h) kinase assay; format: biochemical
T2 construct: purchased Millipore UK Ltd (contract assay service)
T2 sequence (P23458 whole entry): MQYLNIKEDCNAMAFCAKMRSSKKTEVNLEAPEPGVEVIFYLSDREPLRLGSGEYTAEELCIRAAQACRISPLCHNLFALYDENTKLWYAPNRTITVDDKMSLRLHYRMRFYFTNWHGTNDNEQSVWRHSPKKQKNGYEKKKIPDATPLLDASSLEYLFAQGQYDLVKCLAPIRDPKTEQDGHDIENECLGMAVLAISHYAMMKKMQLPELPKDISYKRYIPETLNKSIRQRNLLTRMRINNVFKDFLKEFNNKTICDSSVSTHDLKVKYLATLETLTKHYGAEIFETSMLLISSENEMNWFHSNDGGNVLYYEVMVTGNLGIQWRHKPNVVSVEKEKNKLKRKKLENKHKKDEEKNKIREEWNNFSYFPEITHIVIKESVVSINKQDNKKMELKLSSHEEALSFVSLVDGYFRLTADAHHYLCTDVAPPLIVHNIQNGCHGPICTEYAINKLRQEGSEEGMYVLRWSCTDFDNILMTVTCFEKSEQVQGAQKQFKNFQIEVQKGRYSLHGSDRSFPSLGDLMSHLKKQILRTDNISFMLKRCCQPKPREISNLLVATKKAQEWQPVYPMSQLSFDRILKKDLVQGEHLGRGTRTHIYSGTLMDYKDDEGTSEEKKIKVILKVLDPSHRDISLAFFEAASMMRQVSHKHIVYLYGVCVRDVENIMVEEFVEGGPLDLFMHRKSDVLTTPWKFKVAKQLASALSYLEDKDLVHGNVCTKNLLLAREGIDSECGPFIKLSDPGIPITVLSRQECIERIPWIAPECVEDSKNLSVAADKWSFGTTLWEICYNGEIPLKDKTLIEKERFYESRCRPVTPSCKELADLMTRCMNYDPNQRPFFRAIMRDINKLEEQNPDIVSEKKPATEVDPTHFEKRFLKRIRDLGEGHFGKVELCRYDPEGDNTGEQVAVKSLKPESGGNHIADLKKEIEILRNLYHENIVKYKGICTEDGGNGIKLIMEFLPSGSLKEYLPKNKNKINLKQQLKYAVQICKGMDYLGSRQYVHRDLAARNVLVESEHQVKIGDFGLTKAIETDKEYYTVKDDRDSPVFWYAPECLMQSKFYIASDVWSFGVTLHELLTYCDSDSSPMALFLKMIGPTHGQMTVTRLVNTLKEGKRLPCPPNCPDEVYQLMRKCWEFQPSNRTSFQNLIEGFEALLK
Protocol: as §1
as §2, with “JAK1 (h)” for “FLT3 (h)”, “with 20” for “with 8”, “mM Tris/HCl” for “mM MOPS”, “pH 7.5,” for “pH 7.0,”, “EDTA, 500” for “EDTA, 50”, “μM GEEPLYWSFPAKKK,” for “μM EAIYAAPFAKKK,”
as §3

Row | SMILES | IC50 [1] [nM] | IC50 [2] [nM]
1 | Cc1cc(Nc2ncc(Cl)c(NC3CCN(c4ccc(C#N)nn4)CC3)n2)nn1C [Ex. 13, 6-(4-((5-chloro-2-((1,5-dimethyl-1H-pyrazol-3-yl)amino)pyrimidin-4-yl)amino)piperidin-1-yl)pyridazine-3-carbonitrile] | 48 | 0.4
2 | Cc1nn(C)cc1Nc1ncc(Cl)c(NC2CCN(c3ccc(C#N)nn3)CC2)n1 [Ex. 11, 6-(4-((5-chloro-2-((1,3-dimethyl-1H-pyrazol-4-yl)amino)pyrimidin-4-yl)amino)piperidin-1-yl)pyridazine-3-carbonitrile] | 21 | 0.4
3 | Cn1cc(Nc2ncc(Cl)c(NC3CCN(c4ccc(C#N)cn4)CC3)n2)cn1 [Ex. 1, 6-(4-((5-chloro-2-((1-methyl-1H-pyrazol-4-yl)amino)pyrimidin-4-yl)amino)piperidin-1-yl)nicotinonitrile] | 6 | < 0.3
4 | CN(c1nc(Nc2cnn(C)c2)ncc1Cl)C1CCN(c2ccc(C#N)cn2)CC1 [Ex. 5, 6-(4-((5-chloro-2-((1-methyl-1H-pyrazol-4-yl)amino)pyrimidin-4-yl) (methyl)amino)piperidin-1-yl)nicotinonitrile] | 42 | 0.8
5 | Cc1nn(C)cc1Nc1ncc(Cl)c(NC2CCN(c3ccc(C#N)cn3)CC2)n1 [Ex. 10, 6-(4-((5-chloro-2-((1,3-dimethyl-1H-pyrazol-4-yl)amino)pyrimidin-4-yl)amino)piperidin-1-yl)nicotinonitrile] | 9 | < 0.3
6 | Cc1c2ccc(Nc3ncc(Cl)c(NC4CCN(c5ccc(C#N)cn5)CC4)n3)cc2nn1C [Ex. 4] | 151 | 0.3
7 | Cc1c2ccc(Nc3ncc(Cl)c(NC4CCN(c5ccc(C#N)nn5)CC4)n3)cc2nn1C [Ex. 12, 6-(4-((5-chloro-2-((2,3-dimethyl-2H-indazol-6-yl)amino)pyrimidin-4-yl)amino)piperidin-1-yl)pyridazine-3-carbonitrile] | 4 | < 0.3
